molecular target: T1, human lysophosphatidic acid receptor 1 (LPAR1) (Homo sapiens, UniProt Q92633); assay: FLIPR test of antagonist properties: inhibition of LPA-induced intracellular calcium elevation in CHO-K1 cells expressing hLPAR1; assay type: cell-based; settings: FLIPR calcium assay, CHO-K1/LPA1R cells, LPA at EC80
T1 construct: host or cells: CHO-K1 (Chinese hamster ovary K1) cells, CHO-K1/LPA1R, kept under hygromycin B selection
Protocol: The antagonist properties of the compounds of the present disclosure were tested using the FLIPR (fluorometric imaging plate reader) method. The compounds are inhibitors of intracellular calcium elevation induced by activation of hLPARI (human lysophosphatidic acid receptor 1) expressed in CHO-K1 cells (Chinese hamster ovary K1 cells, HDB).
2.1. Reaction buffer: HBSS+20 mM HEPES+0.1% fatty acid-free BSA+0.001% F-127
2.2. 50×Red dye: (a red dye for blocking background signals in cells) prepared by: weighing out 4 g of tartrazine and 10.2 g of acid red and dissolving them in 100 mL of H2O.
2.3. Fluo-8 staining mixture: 4 mL of reaction buffer, 32 μL of fluo-8, 320 μL of 50×Red dye, and 40 μL of probenecid.
3.1. LPA: dissolved in DPBS (containing 0.1% fatty acid-free BSA) to prepare a 0.8 μM stock solution, and the solution was aliquoted and stored at −20° C.
3.2. Test compound preparation: The test compounds were dissolved in DMSO to prepare 10 mM stock solutions, and the solutions were stored at −20° C. In the experiment, the compounds were first gradient-diluted with DMSO (initial concentration of 50 μM, 3-fold dilution, 10 points) to prepare 200×compound solutions. The compound solutions were then diluted with reaction buffer to give 5×compound solutions, and the solutions were transferred to a 384-well plate (Cat. No. 6008590) using Bravo.
4.1. CHO-K1/LPA1R cells were cultured in a cell culture medium (F-12+10% FBS+400 μg/mL hygromycin B).
4.2. When the cell confluence reached 80%, the cells were digested with 0.25% pancreatin.
4.3. When the cells became round, the digestion was stopped with the medium F-12 (10% FBS), and the cells were counted. Then the cell culture was diluted with F-12 (10% FBS) to give a cell suspension with a density of 6.7×10^5 cells/mL.
4.4. The cell suspension was added to a 384-well black cell culture plate at 30 µL/well using a Multidrop auto-dispenser, and the plate was incubated in a 37° C., 5% CO2 incubator for 20-24 h. The medium was changed to a serum-free F-12 medium, and the cells were starved for 24 h.
4.5. Dose experiment for testing LPA. Gradient dilutions of 6×LPA solution (initial concentration of 60 μM, 3-fold dilution, 10 points) were prepared with reaction buffer. The medium in the 384-well black cell culture plate was discarded and changed to reaction buffer. 10 μL of 5% DMSO reaction buffer was added, and 10 μL of Fluo-8 staining mixture was then added. The plate was incubated in the dark in a 37° C., 5% CO2 incubator for 0.5 h.
4.6. FLIPR was correspondingly programmed, the 6×LPA gradient solutions were added, and readings were taken. Two-minute data were collected.
4.7. A reaction curve was obtained from the numerical values of LPA, and the concentration of LPA at EC80 was calculated. A 6×LPA solution was prepared in a 384-well plate (Cat. No. 6008590), and HPE and ZPE were added to corresponding wells. HPE (one hundred per cent effect) was 60 μM LPA, and ZPE (zero per cent effect) was reaction buffer.
4.8. Testing of compounds. The medium in the 384-well black cell culture plate was discarded and changed to reaction buffer. 10 μL of 5×compound solution was transferred using Bravo, and then 10 μL of Fluo-8 staining mixture was added immediately. The plate was incubated in the dark in a 37° C., 5% CO2 incubator for 0.5 h.
4.9. FLIPR was correspondingly programmed, the 6×LPA solution was added, and readings were taken. Two-minute data were collected.
4.10. Finally, the output fluorescence counts were analyzed, and IC50 was calculated for the compounds.

T1 sequence (Q92633 whole entry): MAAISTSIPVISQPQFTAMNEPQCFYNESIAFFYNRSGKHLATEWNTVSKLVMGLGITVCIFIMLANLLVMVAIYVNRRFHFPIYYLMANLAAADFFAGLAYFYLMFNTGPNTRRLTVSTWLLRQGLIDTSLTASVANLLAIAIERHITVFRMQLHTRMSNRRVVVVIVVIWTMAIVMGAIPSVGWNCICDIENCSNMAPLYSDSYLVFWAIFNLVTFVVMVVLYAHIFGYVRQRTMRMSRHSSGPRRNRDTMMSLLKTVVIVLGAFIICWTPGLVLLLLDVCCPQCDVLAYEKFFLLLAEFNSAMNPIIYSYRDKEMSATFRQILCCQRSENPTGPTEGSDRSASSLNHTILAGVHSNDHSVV

| SMILES | IC50 [nM] |
| --- | --- |
| COc1ccnc(OCc2c(-c3ccc(OC4CC5CCC(C(=O)O)C5C4)c(C)n3)nnn2C)n1 (single isomer, unassigned) [Compound 11-P1, 5-((6-(5-(((4-Methoxypyrimidin-2-yl)oxy)methyl)-1-methyl-1H-1,2,3-triazol-4-yl)-2-methylpyridin-3-yl)oxy)octahydropentalene-1-carboxylic acid] | > 10000 |
| COCc1ccnc(OCc2c(-c3ccc(OC4CC5CCC(C(=O)O)C5C4)c(C)n3)nnn2C)n1 (single isomer, unassigned) [Compound 3-P2, 5-((6-(5-(((4-(Methoxymethyl)pyrimidin-2-yl)oxy)methyl)-1-methyl-1H-1,2,3-triazol-4-yl)-2-methylpyridin-3-yl)oxy)octahydropentalene-1-carboxylic acid] | 1380 |
| CCOCc1ccnc(OCc2c(-c3ccc(OC4CC5CCC(C(=O)O)C5C4)c(C)n3)nnn2C)n1 (single isomer, unassigned) [Compound 13-P1, 5-((6-(5-(((4-(Ethoxymethyl)pyrimidin-2-yl)oxy)methyl)-1-methyl-1H-1,2,3-triazol-4-yl)-2-methylpyridin-3-yl)oxy)octahydropentalene-1-carboxylic acid] | 1090 |
| Cc1nc(-c2nnn(C)c2COc2nccc(O[C@@H]3CCOC3)n2)ccc1OC1CC2CCC(C(=O)O)C2C1 (single isomer, unassigned) [Compound 8-P2] | 502 |

Compounds with a lower IC50, results first:

| IC50 [nM] | SMILES |
| --- | --- |
| 27.9 | CCOCc1ccnc(OCc2c(-c3ccc(OC4CC5CCC(C(=O)O)C5C4)c(C)n3)nnn2C)n1 (single isomer, unassigned) [Compound 13-P2, 5-((6-(5-(((4-(Ethoxymethyl)pyrimidin-2-yl)oxy)methyl)-1-methyl-1H-1,2,3-triazol-4-yl)-2-methylpyridin-3-yl)oxy)octahydropentalene-1-carboxylic acid] |
| 8.7 | COCc1ccnc(OCc2c(-c3ccc(OC4CC5CCC(C(=O)O)C5C4)c(C)n3)nnn2C)n1 (single isomer, unassigned) [Compound 3-P1, 5-((6-(5-(((4-(Methoxymethyl)pyrimidin-2-yl)oxy)methyl)-1-methyl-1H-1,2,3-triazol-4-yl)-2-methylpyridin-3-yl)oxy)octahydropentalene-1-carboxylic acid] |

Reference: patent US20240317725A1, “LPA1 SMALL MOLECULE ANTAGONIST” (TUOJIE BIOTECH (SHANGHAI) CO., LTD., priority 2021, published 2024)
